From ChEMBL document CHEMBL4765381, “Neuropeptide FF and Its Receptors: Therapeutic Applications and Ligand Development” (J Med Chem, 2020)
Numbered stars: 1 amine (or outer) side, 2 acyl side, 3 side chain; on linkers, the order of the positions; unused ones are H or OH. Square brackets hold non-standard residues; d marks the D form. Peptide text beside a SMILES is read from it. * marks the point of attachment. Nva(5-(4-Bn-piperidin-1-yl)) = N[C@@H](CCCN1CCC(Cc2ccccc2)CC1)C(=O)O; X1 = O=C1[C@@H](N[*:1])Cc2ccccc2CN1CCC(=O)[*:2]; Desaminotyrosyl = O=C(CCc1ccc(O)cc1)*; Dmt = Cc1cc(O)cc(C)c1C[C@H](N)C(=O)O

Assays:
[1] = target: Neuropeptide FF receptor 2 (Rattus norvegicus) (UniProt Q9EQD2); test: Agonist activity at rat NPFFR2 by cell-based assay relative to control; settings: filed as agonist
Sequence of Neuropeptide FF receptor 2 (Rattus norvegicus) (Q9EQD2 whole entry): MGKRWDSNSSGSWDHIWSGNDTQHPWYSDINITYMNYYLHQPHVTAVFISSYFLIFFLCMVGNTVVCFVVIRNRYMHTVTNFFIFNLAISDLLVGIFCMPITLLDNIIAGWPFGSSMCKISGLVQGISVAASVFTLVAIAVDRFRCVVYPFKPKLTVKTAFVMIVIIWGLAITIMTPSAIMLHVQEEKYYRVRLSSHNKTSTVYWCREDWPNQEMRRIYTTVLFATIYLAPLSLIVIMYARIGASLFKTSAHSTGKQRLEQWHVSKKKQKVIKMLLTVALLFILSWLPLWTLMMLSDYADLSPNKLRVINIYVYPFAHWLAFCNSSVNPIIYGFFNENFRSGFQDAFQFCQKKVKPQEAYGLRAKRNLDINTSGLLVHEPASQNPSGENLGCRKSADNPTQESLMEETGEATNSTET

[2] = target: Delta-type opioid receptor (Homo sapiens) (UniProt P41143); test: Agonist activity at human delta-opioid receptor expressed in HEK293 cells assessed as inhibition of forskolin-induced cAMP accumulation preincubated for 15 mins followed by forskolin addition in presence of IBMX by Glo-sensor cAMP assay relative to control; format: functional, cell-based; settings: filed as agonist
Sequence of Delta-type opioid receptor (Homo sapiens) (P41143 whole entry): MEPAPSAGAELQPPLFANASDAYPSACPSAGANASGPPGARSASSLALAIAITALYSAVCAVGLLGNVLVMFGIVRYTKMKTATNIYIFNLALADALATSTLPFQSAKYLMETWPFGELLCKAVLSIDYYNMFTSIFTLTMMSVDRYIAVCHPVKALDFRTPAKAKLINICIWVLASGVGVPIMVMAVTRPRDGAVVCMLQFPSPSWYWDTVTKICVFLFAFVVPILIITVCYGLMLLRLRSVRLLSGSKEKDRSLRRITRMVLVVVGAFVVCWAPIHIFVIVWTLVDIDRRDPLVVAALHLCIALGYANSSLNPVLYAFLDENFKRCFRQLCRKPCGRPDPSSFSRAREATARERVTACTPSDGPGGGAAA

[3] = target: Mu-type opioid receptor (Homo sapiens) (UniProt P35372); test: Agonist activity at human mu-opioid receptor expressed in HEK293 cells assessed as inhibition of forskolin-induced cAMP accumulation preincubated for 15 mins followed by forskolin addition in presence of IBMX by Glo-sensor cAMP assay relative to control; format: functional, cell-based; settings: filed as agonist
Sequence of Mu-type opioid receptor (Homo sapiens) (P35372 whole entry): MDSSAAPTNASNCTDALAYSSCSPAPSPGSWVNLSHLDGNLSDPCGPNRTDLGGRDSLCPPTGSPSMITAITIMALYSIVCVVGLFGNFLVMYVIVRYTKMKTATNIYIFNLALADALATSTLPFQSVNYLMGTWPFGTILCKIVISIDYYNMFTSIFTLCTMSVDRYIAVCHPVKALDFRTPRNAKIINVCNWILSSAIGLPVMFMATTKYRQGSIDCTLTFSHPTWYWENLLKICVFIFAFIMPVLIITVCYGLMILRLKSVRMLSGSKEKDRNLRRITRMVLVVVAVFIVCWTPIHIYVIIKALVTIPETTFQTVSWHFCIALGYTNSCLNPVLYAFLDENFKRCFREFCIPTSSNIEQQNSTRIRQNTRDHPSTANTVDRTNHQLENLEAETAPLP

[4] = target: T1, Neuropeptide FF receptor 1 (Homo sapiens, UniProt Q9GZQ6); test: Agonist activity at human NPFFR1 expressed in CHO cells by [35S]-GTP S binding assay relative to control; format: cell-based
T1 sequence (Q9GZQ6 whole entry): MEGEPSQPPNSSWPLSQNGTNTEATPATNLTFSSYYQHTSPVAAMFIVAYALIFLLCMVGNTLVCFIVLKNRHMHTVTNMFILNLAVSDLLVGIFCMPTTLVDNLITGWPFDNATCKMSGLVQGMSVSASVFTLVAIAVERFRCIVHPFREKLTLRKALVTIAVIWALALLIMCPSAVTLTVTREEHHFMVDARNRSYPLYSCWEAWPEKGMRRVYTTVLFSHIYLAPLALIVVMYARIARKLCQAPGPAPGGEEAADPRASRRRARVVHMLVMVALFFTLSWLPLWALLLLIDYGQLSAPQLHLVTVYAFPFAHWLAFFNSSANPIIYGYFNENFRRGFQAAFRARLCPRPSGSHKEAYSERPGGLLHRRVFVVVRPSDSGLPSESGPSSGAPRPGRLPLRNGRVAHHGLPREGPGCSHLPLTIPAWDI

[5] = target: Kappa-type opioid receptor (Homo sapiens, UniProt P41145); test: Agonist activity at human kappa opioid receptor expressed in HEK293 cells assessed as inhibition of forskolin-induced cAMP accumulation incubated for 15 mins followed by forskolin addition in presence of IBMX by Glo-sensor cAMP assay relative to control; format: functional, cell-based
Sequence of Kappa-type opioid receptor (P41145 whole entry): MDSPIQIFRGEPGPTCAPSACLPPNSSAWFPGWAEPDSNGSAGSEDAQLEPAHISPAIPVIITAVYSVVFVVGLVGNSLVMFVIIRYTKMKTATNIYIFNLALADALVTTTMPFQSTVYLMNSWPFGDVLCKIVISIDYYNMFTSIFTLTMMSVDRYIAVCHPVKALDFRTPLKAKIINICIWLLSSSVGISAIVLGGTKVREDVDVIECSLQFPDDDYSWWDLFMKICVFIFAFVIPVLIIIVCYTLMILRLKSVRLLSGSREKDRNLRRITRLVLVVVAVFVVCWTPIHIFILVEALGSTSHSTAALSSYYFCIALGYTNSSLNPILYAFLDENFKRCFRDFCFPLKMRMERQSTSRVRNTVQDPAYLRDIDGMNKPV

[6] = target: T2, Neuropeptide FF receptor 2 (Homo sapiens, UniProt Q9Y5X5); test: Agonist activity at human NPFFR2 expressed in CHO cells by [35S]-GTP S binding assay relative to control; format: cell-based
T2 sequence (Q9Y5X5 whole entry): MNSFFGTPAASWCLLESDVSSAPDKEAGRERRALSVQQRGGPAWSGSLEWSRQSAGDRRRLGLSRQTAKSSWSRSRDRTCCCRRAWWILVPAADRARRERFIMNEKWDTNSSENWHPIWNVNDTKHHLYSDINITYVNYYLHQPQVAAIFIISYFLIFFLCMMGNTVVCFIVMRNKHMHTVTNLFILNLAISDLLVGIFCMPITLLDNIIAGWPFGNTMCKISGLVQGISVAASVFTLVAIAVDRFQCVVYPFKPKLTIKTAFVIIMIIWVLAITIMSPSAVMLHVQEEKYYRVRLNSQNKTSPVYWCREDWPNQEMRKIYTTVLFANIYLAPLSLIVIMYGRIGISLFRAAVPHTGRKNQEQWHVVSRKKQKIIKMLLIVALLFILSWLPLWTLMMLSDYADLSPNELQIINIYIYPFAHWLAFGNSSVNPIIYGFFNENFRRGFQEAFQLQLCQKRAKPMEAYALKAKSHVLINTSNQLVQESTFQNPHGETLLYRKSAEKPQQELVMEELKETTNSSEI

[7] = Displacement of [ […]]Y8Famide from NPFFR in rat spinal cord membranes; format: cell membranes, Membrane
KiSS-1 receptor = KiSS-1 receptor (Homo sapiens, UniProt Q969F8); test: Displacement of [125I]-Kp-10 from human KISS1R expressed in CHO cell membrane by TopCount scintillation counter method; format: cell membranes
Sequence of KiSS-1 receptor (Q969F8 whole entry): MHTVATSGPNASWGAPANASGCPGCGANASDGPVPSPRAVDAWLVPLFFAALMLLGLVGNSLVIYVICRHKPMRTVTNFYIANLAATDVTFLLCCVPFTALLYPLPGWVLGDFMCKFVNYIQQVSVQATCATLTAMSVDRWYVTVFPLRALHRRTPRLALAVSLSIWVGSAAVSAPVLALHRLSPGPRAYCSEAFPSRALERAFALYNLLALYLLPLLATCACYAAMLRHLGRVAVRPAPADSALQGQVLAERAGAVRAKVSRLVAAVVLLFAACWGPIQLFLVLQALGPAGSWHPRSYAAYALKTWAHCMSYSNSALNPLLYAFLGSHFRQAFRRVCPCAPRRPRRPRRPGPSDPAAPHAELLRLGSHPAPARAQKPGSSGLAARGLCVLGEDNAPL

[8] = target: T3, Pyroglutamylated RF-amide peptide receptor (Homo sapiens, UniProt Q96P65); test: Displacement of [125I]-43RFa from human QRFP receptor expressed in CHO cell membrane by TopCount scintillation counter method; format: cell membranes
T3 sequence (Q96P65 whole entry): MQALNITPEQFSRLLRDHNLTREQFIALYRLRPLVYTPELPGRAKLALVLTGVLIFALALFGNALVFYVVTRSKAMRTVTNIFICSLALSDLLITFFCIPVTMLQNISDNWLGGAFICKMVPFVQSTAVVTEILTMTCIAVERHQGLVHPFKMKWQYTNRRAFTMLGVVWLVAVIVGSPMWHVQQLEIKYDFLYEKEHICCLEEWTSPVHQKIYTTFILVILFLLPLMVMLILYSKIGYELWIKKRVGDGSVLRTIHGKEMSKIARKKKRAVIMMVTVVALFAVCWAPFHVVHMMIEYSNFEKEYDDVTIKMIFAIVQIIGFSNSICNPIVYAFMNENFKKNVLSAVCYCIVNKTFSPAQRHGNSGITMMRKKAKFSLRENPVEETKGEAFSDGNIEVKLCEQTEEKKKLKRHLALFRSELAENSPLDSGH

[9] = target: T4, Prolactin-releasing peptide receptor (Homo sapiens, UniProt P49683); test: Displacement of [3H]-PrRP-20 from human PrRP receptor expressed in CHO cell membrane by TopCount scintillation counter method; format: cell membranes
T4 sequence (P49683 whole entry): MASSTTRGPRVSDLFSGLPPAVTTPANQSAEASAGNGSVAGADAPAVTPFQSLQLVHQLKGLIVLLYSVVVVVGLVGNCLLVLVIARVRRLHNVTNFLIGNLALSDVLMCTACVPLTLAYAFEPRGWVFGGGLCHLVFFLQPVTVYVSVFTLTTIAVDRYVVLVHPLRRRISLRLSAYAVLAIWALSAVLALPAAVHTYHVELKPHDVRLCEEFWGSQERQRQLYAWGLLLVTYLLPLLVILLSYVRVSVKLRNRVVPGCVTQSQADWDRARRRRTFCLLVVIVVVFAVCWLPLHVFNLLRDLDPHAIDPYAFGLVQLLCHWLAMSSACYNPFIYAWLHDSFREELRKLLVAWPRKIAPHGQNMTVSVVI

Mus musculus = test: Reversal of morphine-induced analgesia in icv dosed CDF1 mouse assessed as minimum effective dose measured after 15 mins by tail-flick test; format: functional; settings: 0.25 h
[10] = Displacement of [125I]-1DMe from NPFF receptor in Sprague-Dawley rat dorsal horn of spinal cord incubated for 150 mins by autoradiography; format: tissue-based
[11] = target: T2, Neuropeptide FF receptor 2; test: Agonist activity at human NPFFR2 expressed in CHO cells assessed as inhibition of forskolin-induced intracellular cAMP production incubated for 5 hrs by firefly/renilla luciferase reporter assay; format: functional, cell-based
[12] = target: T2, Neuropeptide FF receptor 2; test: Displacement of TAMRA-NPFF from human NPFFR2 expressed in CHO-K1 cells preincubated for 15 mins followed by GTPgammaS addition and measured after 15 to 120 mins by competitive binding assay; format: cell-based
[13] = Displacement of [125I][Tyr1]-NPFF from NPFF receptor in rat spinal cord membranes by Cheng-Prusoff analysis; format: cell membranes, Membrane
[14] = target: T2, Neuropeptide FF receptor 2; settings: COS-1, filed as antagonist, dose 7.5 µM, time 30.0 min
[15] = target: T1, Neuropeptide FF receptor 1; test: Agonist activity at NPFFR1 (unknown origin) expressed in mouse NIH3T3 cells by receptor selection and amplification technology assay relative to control; format: cell-based
[16] = Binding affinity to NPFFR in rat spinal cord; format: tissue-based

Cc1cc(NC(=N)N)nc2ccc(Cl)cc12
Emax [1]: 61%

Cc1cc(O)cc(C)c1C[C@H](N)C(=O)N[C@H](CCCNC(=N)N)C(=O)N[C@H]1Cc2ccccc2CN(CCC(=O)N[C@@H](CCCN2CCC(Cc3ccccc3)CC2)C(=O)N[C@@H](Cc2ccccc2)C(N)=O)C1=O (H-[Dmt][dR][X1][Nva(5-(4-Bn-piperidin-1-yl))]F-NH2)
Emax [2]: 90% | Emax [3]: 85% | Emax [4]: 10% | Emax [5]: 34% | Emax [6]: 38%

CN(C)c1cccc2c(S(=O)(=O)N3CCC[C@H]3C(=O)N[C@@H](CCC(N)=O)C(=O)N[C@@H](CCCNC(=N)N)C(N)=O)cccc12 [DANSYLPQRAMIDE]
Ki [7]: 13000 nM

NC(N)=N/N=C/c1ccc(Cl)c(Cl)c1
Ki (KiSS-1 receptor): > 5000 nM | Ki [8]: > 5000 nM | Ki [9]: > 5000 nM

CC(C)C[C@H](NC(=O)[C@@H](N)Cc1ccccc1)C(=O)N[C@@H](Cc1ccccc1)C(=O)N[C@@H](CCC(N)=O)C(=O)N1CCC[C@H]1C(=O)N[C@@H](CCC(N)=O)C(=O)N[C@@H](CCCN=C(N)N)C(=O)N[C@@H](Cc1ccccc1)C(N)=O
MEC (Mus musculus): 22 nmol | Ki [10]: 0.34 nM

COc1cc2c(c(OC)c1OC)-c1c(cc3c(c1OC)CC3)[C@@H](C(=O)Oc1ccccc1)[C@@](C)(O)[C@@H](C)C2
EC50 [11]: 2220 nM | Ki [12]: 2.17 nM

CC(C)C[C@H](NC(=O)[C@@H](N)Cc1ccccc1)C(=O)N[C@@H](Cc1ccccc1)C(=O)N[C@@H](CCC(N)=O)C(=O)NCC(=O)N[C@@H](CCC(N)=O)C(=O)N[C@@H](CCCN=C(N)N)C(=O)N[C@@H](Cc1ccccc1)C(N)=O (H-FLFQGQRF-NH2)
MEC (Mus musculus): 8.8 nmol | Ki [13]: 1.2 nM

N=C(N)NCCC[C@H](NC(=O)C12CC3CC(CC(C3)C1)C2)C(=O)N[C@@H](Cc1ccccc1)C(N)=O
Ke [14]: 45 nM

NC(=O)CC[C@H](NC(=O)[C@@H]1CCCN1)C(=O)N[C@@H](CCCN=C(N)N)C(=O)N[C@@H](Cc1ccccc1)C(N)=O
Ki [10]: 15.5 nM

N=C(N)N/N=C/c1ccc(Cl)c(Cl)c1
Efficacy [15]: 12%

CC(C)C[C@H](NC(=O)[C@H](Cc1ccccc1)NC(=O)CCc1ccc(O)cc1)C(=O)N[C@@H](Cc1ccccc1)C(=O)N[C@@H](CCC(N)=O)C(=O)N1CCC[C@H]1C(=O)N[C@@H](CCC(N)=O)C(=O)N[C@@H](CCCN=C(N)N)C(N)=O (Desaminotyrosyl-FLFQPQR-NH2)
Ki [16]: 0.2 nM
